Measured values as given in ChEMBL document CHEMBL1201862, “PubChem BioAssay data set” (2004).
Values joined by “and” are separate entries in the source; they are usually repeats but may differ in a detail not shown here. Equal values may be shown once. Active and inactive are the calls of the source.

Columns and labels:
[1] = target: Broad substrate specificity ATP-binding cassette transporter ABCG2 (Homo sapiens, UniProt Q9UNQ0); assay: blockers of JC-1 export by ABCG2 – Ig-MXP3 cells, flow cytometry, dose response (AID 1690); assay type: functional
Chain of Broad substrate specificity ATP-binding cassette transporter ABCG2 (Q9UNQ0 whole entry): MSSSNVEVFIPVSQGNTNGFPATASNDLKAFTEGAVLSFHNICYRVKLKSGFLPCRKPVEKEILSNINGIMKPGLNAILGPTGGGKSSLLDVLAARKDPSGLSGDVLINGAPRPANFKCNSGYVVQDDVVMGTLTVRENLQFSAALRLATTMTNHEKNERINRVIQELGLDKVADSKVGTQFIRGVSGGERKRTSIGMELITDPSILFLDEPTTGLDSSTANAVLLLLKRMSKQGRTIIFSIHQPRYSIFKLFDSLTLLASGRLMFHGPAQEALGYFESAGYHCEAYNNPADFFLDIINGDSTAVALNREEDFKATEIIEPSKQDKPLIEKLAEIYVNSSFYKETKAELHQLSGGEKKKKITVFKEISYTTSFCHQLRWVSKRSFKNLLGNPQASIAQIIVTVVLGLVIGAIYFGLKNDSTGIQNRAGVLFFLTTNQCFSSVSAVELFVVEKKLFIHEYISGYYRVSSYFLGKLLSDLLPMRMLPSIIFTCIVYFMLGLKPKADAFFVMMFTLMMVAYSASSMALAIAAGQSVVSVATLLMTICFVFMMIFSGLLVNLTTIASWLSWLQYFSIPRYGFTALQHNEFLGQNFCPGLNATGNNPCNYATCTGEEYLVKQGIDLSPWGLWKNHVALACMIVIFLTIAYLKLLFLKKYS

[2] = target: ATP-dependent translocase ABCB1 (Homo sapiens, UniProt P08183); assay: inhibition of P-gp mediated JC-1 efflux – Jurkat-DNR cells, flow cytometry, dose response (AID 1689); assay type: functional
Chain of ATP-dependent translocase ABCB1 (P08183 whole entry): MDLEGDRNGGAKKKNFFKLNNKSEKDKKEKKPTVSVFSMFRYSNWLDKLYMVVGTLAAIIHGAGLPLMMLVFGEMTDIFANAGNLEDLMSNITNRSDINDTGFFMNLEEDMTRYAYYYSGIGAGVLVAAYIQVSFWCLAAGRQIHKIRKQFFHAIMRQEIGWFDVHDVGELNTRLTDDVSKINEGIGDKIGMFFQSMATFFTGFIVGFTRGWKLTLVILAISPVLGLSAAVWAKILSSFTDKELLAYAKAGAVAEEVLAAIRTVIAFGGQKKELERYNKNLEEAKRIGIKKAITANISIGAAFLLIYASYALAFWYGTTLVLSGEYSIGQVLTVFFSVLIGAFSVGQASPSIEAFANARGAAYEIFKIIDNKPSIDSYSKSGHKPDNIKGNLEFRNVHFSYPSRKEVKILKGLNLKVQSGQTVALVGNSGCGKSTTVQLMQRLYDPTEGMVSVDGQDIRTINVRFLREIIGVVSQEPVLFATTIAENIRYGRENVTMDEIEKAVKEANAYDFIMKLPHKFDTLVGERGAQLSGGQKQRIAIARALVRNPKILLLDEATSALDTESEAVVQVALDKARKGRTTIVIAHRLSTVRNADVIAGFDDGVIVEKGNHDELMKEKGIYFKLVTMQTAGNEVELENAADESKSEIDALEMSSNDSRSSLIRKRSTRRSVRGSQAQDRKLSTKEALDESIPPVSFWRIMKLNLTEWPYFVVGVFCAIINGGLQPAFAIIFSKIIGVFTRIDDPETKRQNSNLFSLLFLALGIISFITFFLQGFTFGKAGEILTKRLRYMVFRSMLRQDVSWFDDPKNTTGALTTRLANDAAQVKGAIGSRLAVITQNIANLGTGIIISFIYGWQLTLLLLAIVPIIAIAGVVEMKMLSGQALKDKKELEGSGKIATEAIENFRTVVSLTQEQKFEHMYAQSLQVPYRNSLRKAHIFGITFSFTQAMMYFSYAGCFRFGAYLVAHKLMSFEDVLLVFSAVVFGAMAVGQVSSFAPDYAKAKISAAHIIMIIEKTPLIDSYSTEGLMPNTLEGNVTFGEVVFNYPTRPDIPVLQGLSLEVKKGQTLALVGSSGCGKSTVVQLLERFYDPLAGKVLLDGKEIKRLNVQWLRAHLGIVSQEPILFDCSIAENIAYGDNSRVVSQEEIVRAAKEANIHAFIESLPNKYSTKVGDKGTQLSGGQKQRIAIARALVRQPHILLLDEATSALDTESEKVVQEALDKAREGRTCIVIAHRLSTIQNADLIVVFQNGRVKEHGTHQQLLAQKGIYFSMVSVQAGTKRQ

fMet-Leu-Phe receptor = fMet-Leu-Phe receptor (Homo sapiens, UniProt P21462); assay: formyl peptide receptor binders – dose response (AID 519); assay type: functional
Chain of fMet-Leu-Phe receptor (P21462 whole entry): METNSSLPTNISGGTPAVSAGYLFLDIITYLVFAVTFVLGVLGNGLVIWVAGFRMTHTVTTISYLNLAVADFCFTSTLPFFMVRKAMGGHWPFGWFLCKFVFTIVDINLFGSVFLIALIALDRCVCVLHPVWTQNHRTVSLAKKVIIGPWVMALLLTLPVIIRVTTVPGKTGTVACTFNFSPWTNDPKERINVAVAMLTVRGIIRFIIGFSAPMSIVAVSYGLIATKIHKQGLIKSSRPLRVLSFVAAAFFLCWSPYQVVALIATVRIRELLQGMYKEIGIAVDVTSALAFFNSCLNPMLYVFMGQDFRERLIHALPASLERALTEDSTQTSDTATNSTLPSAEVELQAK

Cytochrome P450 2C9 = Cytochrome P450 2C9 (Homo sapiens, UniProt P11712)
Chain of Cytochrome P450 2C9 (P11712 whole entry): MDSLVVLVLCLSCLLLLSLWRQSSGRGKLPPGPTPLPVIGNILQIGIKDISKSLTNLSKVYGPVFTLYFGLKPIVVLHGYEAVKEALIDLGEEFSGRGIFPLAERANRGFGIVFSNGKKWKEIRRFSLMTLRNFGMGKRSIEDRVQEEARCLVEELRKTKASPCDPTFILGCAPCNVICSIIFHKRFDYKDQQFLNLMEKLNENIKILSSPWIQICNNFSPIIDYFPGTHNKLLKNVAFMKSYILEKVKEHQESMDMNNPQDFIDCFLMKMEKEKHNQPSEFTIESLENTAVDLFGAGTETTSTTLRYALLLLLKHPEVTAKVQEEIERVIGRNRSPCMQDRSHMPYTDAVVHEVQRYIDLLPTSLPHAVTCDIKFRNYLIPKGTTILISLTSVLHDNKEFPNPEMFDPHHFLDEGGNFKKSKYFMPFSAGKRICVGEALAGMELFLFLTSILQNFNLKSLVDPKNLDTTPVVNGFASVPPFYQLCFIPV

[3] = target: Long-chain-fatty-acid--AMP ligase FadD28 (Mycobacterium tuberculosis, UniProt P9WQ59); assay: Fluorescence polarization aasay to screen for inhibitors that compete for the binding of FadD28 to a bisubstrate Measured in Biochemical System Using Plate Reader - 2147-01_Inhibitor_Dose_CherryPick_Activity.; assay type: functional, Mycobacterium tuberculosis H37Rv
Chain of Long-chain-fatty-acid--AMP ligase FadD28 (P9WQ59 whole entry): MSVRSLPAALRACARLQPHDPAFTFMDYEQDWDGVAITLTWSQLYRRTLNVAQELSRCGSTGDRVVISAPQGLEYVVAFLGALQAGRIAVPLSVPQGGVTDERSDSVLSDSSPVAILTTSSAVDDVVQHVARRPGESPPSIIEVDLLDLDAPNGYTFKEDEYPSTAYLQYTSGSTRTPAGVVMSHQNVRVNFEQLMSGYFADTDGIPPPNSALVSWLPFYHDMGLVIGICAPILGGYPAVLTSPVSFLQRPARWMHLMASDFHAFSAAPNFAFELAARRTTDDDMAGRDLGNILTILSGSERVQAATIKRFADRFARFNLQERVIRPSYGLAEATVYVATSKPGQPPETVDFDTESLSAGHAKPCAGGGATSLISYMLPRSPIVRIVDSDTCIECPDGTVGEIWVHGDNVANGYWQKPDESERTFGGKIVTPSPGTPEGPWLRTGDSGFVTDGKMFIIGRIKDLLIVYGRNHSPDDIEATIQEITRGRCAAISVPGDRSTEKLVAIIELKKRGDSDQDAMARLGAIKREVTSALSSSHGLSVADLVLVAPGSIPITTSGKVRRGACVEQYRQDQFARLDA

Beta-lactamase [4] = target: Beta-lactamase (Salmonella choleraesuis (strain SC-B67), UniProt Q5J463); assay: Epi-absorbance-based counterscreen for selective VIM-2 inhibitors: dose response biochemical high throughput screening assay to identify inhibitors of TEM-1 serine-beta-lactamase.
Chain of Beta-lactamase (Salmonella choleraesuis (strain SC-B67), UniProt Q5J463) (Q5J463 whole entry): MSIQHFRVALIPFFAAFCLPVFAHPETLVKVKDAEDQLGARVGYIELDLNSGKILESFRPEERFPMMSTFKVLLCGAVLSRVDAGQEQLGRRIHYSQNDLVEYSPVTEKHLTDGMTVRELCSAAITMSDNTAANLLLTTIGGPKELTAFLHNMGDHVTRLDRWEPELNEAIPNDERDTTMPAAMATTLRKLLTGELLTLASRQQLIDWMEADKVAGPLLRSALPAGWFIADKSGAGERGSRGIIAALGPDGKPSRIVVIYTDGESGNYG

Beta-lactamase [5] = target: T1, Beta-lactamase (Pseudomonas aeruginosa, UniProt Q79MP6); assay: […] counterscreen for selective VIM-2 inhibitors: dose response biochemical high throughput screening assay to identify inhibitors of IMP-1 metallo-beta-lactamase.
T1 sequence (Q79MP6 whole entry): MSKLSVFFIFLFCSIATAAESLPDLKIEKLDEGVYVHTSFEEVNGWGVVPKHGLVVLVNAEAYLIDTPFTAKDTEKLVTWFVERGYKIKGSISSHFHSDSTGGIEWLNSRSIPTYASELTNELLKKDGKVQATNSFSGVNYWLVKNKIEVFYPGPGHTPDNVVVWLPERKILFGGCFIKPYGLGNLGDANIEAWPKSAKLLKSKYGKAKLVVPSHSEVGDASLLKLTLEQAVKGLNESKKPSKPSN

[6] = target: DNA dC->dU-editing enzyme APOBEC-3G (Homo sapiens, UniProt Q9HC16); assay: Dose Response confirmation of small molecule APOBEC3G DNA Deaminase Inhibitors via a fluorescence-based single-stranded DNA deaminase assay. [Related pubchem assays (depositor defined):AID493012, AID493028]; assay type: functional
Chain of DNA dC->dU-editing enzyme APOBEC-3G (Q9HC16 whole entry): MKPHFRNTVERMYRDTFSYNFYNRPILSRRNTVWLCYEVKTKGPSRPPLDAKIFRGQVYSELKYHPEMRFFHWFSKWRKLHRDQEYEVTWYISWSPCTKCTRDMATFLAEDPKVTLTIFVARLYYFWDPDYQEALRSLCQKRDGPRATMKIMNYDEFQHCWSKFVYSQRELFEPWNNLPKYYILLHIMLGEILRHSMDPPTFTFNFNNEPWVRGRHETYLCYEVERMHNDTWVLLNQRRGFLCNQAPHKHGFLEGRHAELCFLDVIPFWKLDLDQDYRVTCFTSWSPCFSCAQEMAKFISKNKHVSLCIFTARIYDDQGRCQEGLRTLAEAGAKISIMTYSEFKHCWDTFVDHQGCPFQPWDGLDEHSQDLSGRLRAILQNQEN

Beta-lactamase [7] = target: T1, Beta-lactamase; assay: inhibition of IMP-1 beta-lactamase activity – biochemical, epi-absorbance, selectivity assay for VIM-2 inhibitor project, dose response (AID 1920)
[8] = target: DNA dC->dU-editing enzyme APOBEC-3A (Homo sapiens, UniProt P31941); assay: A3A deaminase inhibition for selectivity – biochemical, dose response (AID 504722); assay type: functional
Chain of DNA dC->dU-editing enzyme APOBEC-3A (P31941 whole entry, the tested form may be a part): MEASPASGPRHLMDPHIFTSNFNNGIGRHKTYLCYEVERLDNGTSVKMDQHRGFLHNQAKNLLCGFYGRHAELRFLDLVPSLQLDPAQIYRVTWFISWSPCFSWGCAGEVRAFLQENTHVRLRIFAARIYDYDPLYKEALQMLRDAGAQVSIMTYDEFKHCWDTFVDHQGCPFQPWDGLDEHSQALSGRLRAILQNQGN

[9] = blockers of HIV-1 envelope-mediated cell-cell fusion – cherry-pick, dose response (AID 652057); assay type: functional, cell-based
[10] = inhibition of Env-driven cell fusion – HIV entry, plate reader, dry powder, dose response (AID 687023); assay type: functional, cell-based
[11] = blockers of HIV-1 ZM109 envelope-driven cell-cell fusion – HeLa effector, CEM target cells, luciferase, cherry-pick, dose response (AID 652058); assay type: functional, cell-based;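 note: luciferase signal from HIV-1 Env mediated cell-cell fusion of effector and target cells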
[12] = viability loss in CEM21 cells – cell-based, plate reader, dry powder, cytotoxicity control, dose response (AID 687026); assay type: functional
[13] = off-target signal loss in HeLa-CEM21 co-culture – HeLa F-luc CTL cells, cherry-picked, counter-screen for HIV-1 Env fusion inhibitor project, dose response (AID 652040); assay type: functional, cell-based;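 note: potency for signal decrease marking cytotoxic or nonspecific inhibition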
[14] = HIV-1 AD8 envelope cell-cell fusion blockers – cherry-pick, dose response (AID 652062); assay type: functional, cell-based;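 note: luciferase signal from cell-cell fusion driven by HIV-1 clade B AD8 Env; potency is for inhibitors of fusion seen as a drop in luminescence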
[15] = human cervical cancer cell viability loss – 24 h, plate reader, dry powder, cytotoxicity control, dose response (AID 686928); assay type: functional, cell-based; conditions: HeLa
[16] = target: Matrix metalloproteinase-14 (Homo sapiens, UniProt P50281); assay: Dose Response confirmation of uHTS hits for a small molecule inhibitors of MT1-MMP activation in a fluorescence assay set 1.; assay type: functional
[17] = viability loss in HEK293T cells – cell-based, cherry-picks, cytotoxicity control for HIV Vif inhibitor project, dose response (AID 652208); assay type: functional
BHK-21 = assay: viability loss in BHK-21 cells – cell-based, plate reader, cherry-pick samples, cytotoxicity control, dose response (AID 687030); assay type: functional; conditions: Mesocricetus auratus
A549 = assay: viability loss in A549 cells – cell-based, plate reader, cherry-pick samples, cytotoxicity control, dose response (AID 687028); assay type: functional; conditions: Homo sapiens
[18] = target: NAD-dependent protein deacylase sirtuin-5, mitochondrial (Homo sapiens, UniProt Q9NXA8); assay: sirtuin-5 deacylation blockers, concentration series – biochemical, fluorescence imaging, cherry-pick, set 5, dose response (AID 720591);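 note: desuccinylation of succinyl peptide AMC substrate read as fluorescence after trypsin release; potency of inhibitors that lower fluorescence and may act on trypsin instead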
Chain of NAD-dependent protein deacylase sirtuin-5, mitochondrial (Q9NXA8 whole entry): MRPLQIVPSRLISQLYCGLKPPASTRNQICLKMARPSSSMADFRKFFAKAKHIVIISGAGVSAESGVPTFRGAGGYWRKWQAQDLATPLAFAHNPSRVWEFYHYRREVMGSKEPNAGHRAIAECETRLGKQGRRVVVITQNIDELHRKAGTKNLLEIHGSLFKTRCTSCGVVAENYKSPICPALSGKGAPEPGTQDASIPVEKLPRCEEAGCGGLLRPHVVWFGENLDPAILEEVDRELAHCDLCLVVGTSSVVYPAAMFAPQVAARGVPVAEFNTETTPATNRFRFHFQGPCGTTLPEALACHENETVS

With `CN(C)c1ccc(P(=O)(Nc2cccc(C(F)(F)F)c2)N2CCOCC2)c(NC(=O)c2cccs2)c1` (configuration not stated) the EC50 [1] was 1.21 µM (inactive) and the EC50 [2] was 286 nM (active).
In the case of `Cc1ccc(C2C(C(=O)c3ccc(Cl)cc3)=C(O)C(=O)N2CC2CCCO2)o1` (configuration not stated), the Ki (fMet-Leu-Phe receptor) is reported as 11.6 µM (active) and the AC50 (Cytochrome P450 2C9) is reported as 22.4 µM (inconclusive).
With `COc1ccc(OC)c(C2=NOC(C(=O)Nc3cccc(C(C)=O)c3)C2)c1` (configuration not stated) the AC50 [3] was 34.6 µM (active).
With `C=C(C)Cn1c(-c2cccs2)n[nH]c1=S` the IC50 (Beta-lactamase [4]) was > 59.6 µM (inactive), the IC50 (Beta-lactamase [5]) was > 59.6 µM (inactive) and the IC50 [6] was 7.53 µM (active). The IC50 (Beta-lactamase [7]) was > 59.6 µM (inactive) and the IC50 [8] was > 100 µM (inactive).
With `Cc1ccc2c(CN3CCN(S(=O)(=O)c4ccc5c(c4)OCCO5)CC3)cc(=O)oc2c1C` the AC50 [9] was 4.58 µM (active), the AC50 [10] was 3.95 µM (active) and 5.68 µM (active) and 3.52 µM (active) and the AC50 [11] was 424 nM (active). For the same compound, the AC50 [12] was > 70 µM (inactive), the AC50 [13] was > 70 µM (inactive) and the AC50 [14] was 4.06 µM (active).
With `O=C(Nc1nnc(-c2ccc(Cl)cc2)o1)C1CCCCC1` the AC50 [15] was > 160 µM (inactive).
With `Nc1ccc(NC(=O)c2ccccc2)c2c1C(=O)c1ccccc1C2=O` the IC50 [16] was 19.5 µM (active).
For `COC(=O)N1C(=O)[C@](c2ccc(Cl)cc2)(C(C)C)N1C(=O)OC`, the AC50 [17] was 18.7 µM (active).
With `COc1cc(NC(=O)c2nccn2C)cc(C(=O)Nc2cccc(C(F)(F)F)c2)c1` the AC50 (BHK-21) was 26.2 µM (active) and the AC50 (A549) was 19.7 µM (active).
With `CCCCC(=O)Nc1ccc2c(c1)nc(CCNC(=O)c1ccco1)n2C` the AC50 [18] was > 30 µM (inactive).
